{"source": "patent US20260306460A1", "about": "“COMPOSITION FOR REMOVING AND INHIBITING SENESCENT CELLS, AND USES THEREOF” (LIFECEUTIX CO., LTD., priority 2023, published 2026)", "type_in_all_cases": "in vivo, mouse", "key": {"[1]": {"tested_on": "doxorubicin-induced aged C57BL6J mice", "assay": "Hair loss area in doxorubicin-aged mice, Example 22-11, Table 40", "experimental": "Eight-week-old male C57BL6J mice (KRIBB Laboratory Animal Resource Center) were acclimated to the experimental environment for one week. Afterwards, the anticancer agent doxorubicin was administered intraperitoneally at a concentration of 10 mg/kg, inducing aging for more than 10 days. The aging-induced mice were randomly assigned to experimental and control groups. LX-403 was mixed with a 10% ethanol solution of PEG400 and administered orally at a concentration of 25 mg/kg or intradermally at a concentration of 1 μM for 21 days. LX-1801 was mixed in distilled water with 4% DMSO, 30% PEG300, and 5% Tween80 and administered intradermally at a concentration of 0.4 μM daily for 21 days. LX-2001 was mixed in PBS and administered intradermally at a concentration of 2 μM daily for 21 days. LX-2002 was mixed in distilled water with 4% DMSO, 30% PEG300, and 5% Tween80 and administered intradermally at a concentration of 2 μM daily for 21 days. […] LX-2005 was mixed in distilled water with 4% DMSO, 30% PEG300, and 5% Tween80 and administered intradermally at a concentration of 90 μM daily for 21 days. LX-2007 was mixed in distilled water with 4% DMSO, 30% PEG300, and 5% Tween80 and administered intradermally at a concentration of 90 μM daily for 21 days. […] LX-3002 was mixed in distilled water with 4% DMSO, 30% PEG300, and 5% Tween80 and administered orally at a concentration of 10 mg/kg daily for 21 days. […] LX-5411 was mixed in 5% phosphate-buffered saline (PBS) and administered orally at a concentration of 10 mg/kg daily for 21 days or intradermally at a concentration of 3 μM. LX-5701 was mixed in PBS and administered orally at a concentration of 360 mg/kg daily for 21 days. LX-6807 was mixed in saline and administered intraperitoneally at a concentration of 1 mg/kg daily for 21 days. The control group received only the solution in the same volume. After the end of drug administration, the methods described in each example below were performed.\nAlopecia is one of the most troubling side effects of chemotherapy, for which there is currently no treatment. Hair loss in mice induced to age by the anticancer drug was quantified using imaging software such as ImageJ (NIH) from digital photographs taken using a fixed camera position and magnification."}, "[2]": {"tested_on": "obesity-induced aged C57BL6J mice", "assay": "Anxiety, depression, lethargy (open field test) in obesity-aged mice, Example 23-4, Table 44", "conditions": "for geriatric depression: obesity-aged mice; for Open Field Test Time in Center: obesity-induced aged mice, daily for 21 days, activity after obesity-induced aging calculated as 100%", "method_in_brief": "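Male C57BL6J mice were made obese on a high-fat diet from 15 weeks of age. Compounds were given daily for 21 days: LX-3002 10 mg/kg orally, LX-5701 360 mg/kg orally, LX-6807 1 mg/kg intraperitoneally, with vehicle-treated controls. Open-field activity was then expressed relative to obese untreated mice set at 100%.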"}, "[3]": {"tested_on": "cigarette smoke-induced COPD C57BL6J mice", "assay": "Cigarette smoke COPD in mice (p16, IL6 mRNA, alveoli size), Example 25, Table 49", "conditions": "for Airspace enlargement: average size of alveoli, untreated 38.7 (±0.6); for IL6 mRNA / p16 mRNA: lung, daily for 21 days, untreated 100%", "experimental": "Eight-week-old male C57BL6J mice (KRIBB Laboratory Animal Resource Center) were acclimated to the experimental environment for one week. After exposure to standard cigarette smoke (costa monitoring cigarette 7) for 5 hours per day, 5 days per week for 6 months, chronic obstructive pulmonary disease (COPD) was induced. Mice with induced COPD were randomly assigned to experimental and control groups. […] LX-3002 was mixed in distilled water with 4% DMSO, 30% PEG300, 5% tween80 and administered orally at a concentration of 10 mg/kg daily for 21 days. LX-5701 was mixed in PBS and administered orally at a concentration of 360 mg/kg daily for 21 days. LX-6807 was mixed in saline and administered intraperitoneally at a concentration of 1 mg/kg daily for 21 days. The control group received only the solution in the same volume. After the end of drug administration, mice were sacrificed in the same manner as in Example 7-2 of WO2023-085787 A1, RNA was extracted from lung tissue, and qRT-PCR (quantitative real-time PCR) was performed and analyzed using the synthesized cDNA. […] The amount of mRNA after aging was calculated as 100%, and the results after treatment with the test compound were compared. Furthermore, paraffin sections were stained with hematoxylin/eosin (H/E), and the size of alveoli was measured under a light microscope to assess the degree of lung function impairment."}, "[4]": {"conditions": "doxorubicin-induced aged mice, untreated 100 (±15.4)"}}, "note": "Read-outs that look alike come from different tables or passages of the source.", "data": [{"compound": "CC1(C)CC[C@]2(NC(=O)C(C)(F)F)CC[C@]3(C)[C@H](C(=O)C=C4[C@@]5(C)C=C(C#N)C(=O)C(C)(C)[C@@H]5CC[C@]43C)[C@@H]2C1", "note": "[LX-2101, Omaveloxolone]", "values": [{"measurement": "Relative area of hair loss", "setting": "[1]", "result": "79 (±3.9) %"}, {"measurement": "geriatric depression", "setting": "[2]", "result": "similarly improving geriatric depression"}]}, {"compound": "CCCC\\C=C/C=C/C=C\\CCCCCCCC(=O)O", "note": "[LX-2707, Punicic acid]", "values": [{"measurement": "Airspace enlargement", "setting": "[3]", "result": "36.4 (±1.9) μm"}, {"measurement": "IL6 mRNA", "setting": "[3]", "result": "76 (±6.7) %"}, {"measurement": "p16 mRNA", "setting": "[3]", "result": "78 (±5.5) %"}, {"measurement": "geriatric depression", "setting": "[2]", "result": "similarly improving geriatric depression"}, {"measurement": "Open Field Test Time in Center", "setting": "[2]", "result": "224 (±12.8) %"}]}, {"compound": "C[C@@H]1CC[C@@]23C[C@H](O)C(=O)[C@@]2(O)[C@]1(C)[C@H](OC(=O)CCl)C[C@@H](C1=CCn2c(=O)n(-c4ccccc4)c(=O)n2C1)[C@@H]3C", "note": "[LX-1801, (2S,3aS,4S,5R,7R,8S,8aS,11R)-7-(1,3-Dioxo-2-phenyl-2,3,5,8-tetrahydro-1H-[1,2,4]triazolo[1,2-a]pyridazin-6-yl)-2,3a-dihydroxy-4,8,11-trimethyl-3-oxooctahydro-1H-4,8a-propanoazulen-5-yl 2-Chloroacetate]", "values": [{"measurement": "Relative area of hair loss", "setting": "[1]; [4]", "result": "78 (±5.4) %"}]}, {"compound": "CC1(C)CC[C@]2(C(=O)O)CC[C@]3(C)C(=CC[C@@H]4[C@@]5(C)CC[C@H](O)C(C)(C)[C@@H]5CC[C@]43C)[C@@H]2C1", "note": "[LX-2003, Oleanolic acid]", "values": [{"measurement": "Relative area of hair loss", "setting": "[1]; [4]", "result": "79 (±6.7) %"}]}, {"compound": "C#CC(=O)N1[C@@H](CCCC)Cc2cc(OC)ccc2[C@@H]1c1ccc(NC23CC4CC(CC(C4)C2)C3)cc1", "note": "[LX-5411]", "values": [{"measurement": "Relative area of hair loss", "setting": "[1]; [4]", "result": "77 (±4.1) %"}, {"measurement": "geriatric depression", "setting": "[2]", "result": "similarly improving geriatric depression"}]}, {"compound": "C=C(C)[C@@H]1CC[C@]2(C(=O)O)CC[C@]3(C)[C@H](CC[C@@H]4[C@@]5(C)CC[C@H](O)C(C)(C)[C@@H]5CC[C@]43C)[C@@H]12", "note": "[LX-2005, Betulinic acid]", "values": [{"measurement": "Relative area of hair loss", "setting": "[1]; [4]", "result": "82 (±4.6) %"}]}, {"compound": "C[C@H]1[C@H](C)CC[C@]2(C(=O)O)CC[C@]3(C)C(=CC[C@@H]4[C@@]5(C)C[C@@H](O)[C@H](O)C(C)(C)[C@@H]5CC[C@]43C)[C@H]12", "note": "[LX-2002, Corosolic acid]", "values": [{"measurement": "Relative area of hair loss", "setting": "[1]; [4]", "result": "83 (±10.4) %"}]}, {"compound": "O=C1C2CCN(CC2)C1CNC(=O)C(F)(F)F", "note": "(stereo not drawn) [LX-5701]", "values": [{"measurement": "Airspace enlargement", "setting": "[3]", "result": "31.9 (±2.4) μm"}, {"measurement": "IL6 mRNA", "setting": "[3]", "result": "59 (±16.8) %"}, {"measurement": "p16 mRNA", "setting": "[3]", "result": "70 (±7.8) %"}, {"measurement": "Relative area of hair loss", "setting": "[1]; [4]", "result": "67 (±17.8) %"}, {"measurement": "Open Field Test Time in Center", "setting": "[2]", "result": "217 (±20.1) %"}]}, {"compound": "COC(=O)[C@H]1Cc2c([nH]c3ccccc23)[C@H](c2ccc(S(C)(=O)=O)cc2)N1C(=O)CCl", "note": "[LX-5401, methyl (1S,3R)-2-(2-chloroacetyl)-1-(4-(methylsulfonyl)phenyl)-2,3,4,9-tetrahydro-1H-pyrido[3,4-b]indole-3-carboxylate]", "values": [{"measurement": "geriatric depression", "setting": "[2]", "result": "similarly improving geriatric depression"}]}, {"compound": "O=C(C(C[N+](=O)[O-])=NO)N1CCN(C(c2ccc(Cl)cc2)c2ccc(Cl)cc2)CC1", "note": "[LX-403]", "values": [{"measurement": "Relative area of hair loss", "setting": "[1]; [4]", "result": "76 (±5.5) %"}]}, {"compound": "Tocofersolan [LX-3001]", "values": [{"measurement": "Airspace enlargement", "setting": "[3]", "result": "37.1 (±2.7) μm"}, {"measurement": "IL6 mRNA", "setting": "[3]", "result": "79 (±9.9) %"}, {"measurement": "p16 mRNA", "setting": "[3]", "result": "83 (±5.0) %"}, {"measurement": "Open Field Test Time in Center", "setting": "[2]", "result": "168 (±11.9) %"}]}, {"compound": "CC1(C)C=C2[C@H]3CC[C@@H]4[C@@]5(C)CCC(=O)C(C)(C)[C@@H]5CC[C@@]4(C)[C@]3(C)CC[C@@]2(C(=O)O)CC1", "note": "[LX-2007, Moronic acid]", "values": [{"measurement": "Relative area of hair loss", "setting": "[1]; [4]", "result": "86 (±2.9) %"}]}, {"compound": "COC(=O)c1ccc([C@H]2c3[nH]c4ccccc4c3C[C@H](C(=O)OC)N2C(=O)CCl)cc1", "note": "[LX-405]", "values": [{"measurement": "geriatric depression", "setting": "[2]", "result": "similarly improving geriatric depression"}]}, {"compound": "Cc1cccc([C@H](C)c2cnc[nH]2)c1C", "note": "[LX-6807, Dexmedetomidine]", "values": [{"measurement": "Airspace enlargement", "setting": "[3]", "result": "30.4 (±1.5) μm"}, {"measurement": "IL6 mRNA", "setting": "[3]", "result": "48 (±5.6) %"}, {"measurement": "p16 mRNA", "setting": "[3]", "result": "68 (±2.4) %"}, {"measurement": "Relative area of hair loss", "setting": "[1]; [4]", "result": "59 (±3.2) %"}, {"measurement": "geriatric depression", "setting": "[2]", "result": "similarly improving geriatric depression"}, {"measurement": "Open Field Test Time in Center", "setting": "[2]", "result": "202 (±18.2) %"}]}, {"compound": "C[C@H]1[C@H](C)CC[C@]2(C(=O)O)CC[C@]3(C)C(=CC[C@@H]4[C@@]5(C)CC[C@H](O)C(C)(C)[C@@H]5CC[C@]43C)[C@H]12", "note": "[LX-2001, Ursolic acid]", "values": [{"measurement": "Relative area of hair loss", "setting": "[1]; [4]", "result": "80 (±6.9) %"}]}]}
